These results are taken from publication PMC5701947, “β1-Adrenergic Receptor Contains Multiple IA^k and IE^k Binding Epitopes That Induce T Cell Responses with Varying Degrees of Autoimmune Myocarditis in A/J Mice” (Frontiers in Immunology, 2017).

No end group written: not given here.

The subject of experiment [1] is CD4 T cells. Briefly: IE^k dextramer staining of CD4 T cells. The experiment is classed as cell-based, A/J mice. The note with it: IE^k dextramers; cells from β1ARAc 181–200-immunized mice; P = 0.028 vs control dextramer; Figure 4B. The text has this: (§1) To enumerate the frequencies of antigen-specific CD4 T cells, we created IA^k dextramers for β1AR 171-190 and β1AR 211–230, and IE^k dextramers for β1AR 181–200. To create IA^k dextramers, the nucleotide sequence for β1AR 171–190 ([…]) and β1AR 211–230 ([…]) was inserted into the IA^k-β construct that we had described previously ([35], [39]), whereas IA^k/RNase 43–56 (control) dextramers were readily available in our laboratory ([30], [35], [40]). The soluble, IA^k/β1AR 171–190 and IA^k/β1AR 211–230 molecules were expressed in sf9 cells using baculovirus expression system. After purifying through anti-IA^k-affinity column, the IA^k/β1AR 171–190 and IA^k/β1AR 211–230 monomers were biotinylated and dextramers were derived using streptavidin (SA)/fluorophore-conjugated dextran molecules as described previously ([35], [39]). […]
(§2) To stain with dextramers, lymphocytes obtained from lymph nodes and spleens from immunized animals were stimulated with the immunizing peptides namely, β1ARAc 171–190, β1ARAc 181–200, and β1ARAc 211–230 (20 µg/ml) for 2 days and growth medium containing interleukin (IL)-2 (IL-2 medium) was then added. […] After washing, and acquisition by flow cytometry, percent dextramer^+ (dext^+) cells were analyzed within the live cells (7-AAD^−) using Flow Jo software ([34], [35], [39]).

In the next experiment the test system is Balb/c mice. To be noted: cited from earlier work. The text has this:
It has been proposed that acetylated peptides can be prevented from intracellular degradation leading to their stable binding to MHC molecules ([29], [50]). Thus, we decided to use the acetylated peptides, and focused only the peptides that were located within the stretch of β1AR 171–230 (Table 1).

Another experiment has as its system A/J mice (hearts). Briefly: Induction of myocarditis by active immunization with peptides (histology). The experiment is classed as in vivo. To be noted: for Myocarditis incidence / Myocarditis incidence (animals with disease/total) / Inflammatory foci: individual non-acetylated peptide, 100 µg per animal; for Myocarditis incidence / Myocarditis incidence (animals with disease/total): CFA/PT, days 0 and 7, day 21; for Inflammatory foci: mean ± SEM of myocarditic animals.

In experiment [2] the test system is T cells (lymph node cells/splenocytes from immunized animals). Put plainly: T cell proliferation assay ([3H]-thymidine). It counts as cell-based, A/J mice. To be noted: for T cell responses: fold vs medium control; for T cell responses (in words): proliferation, 0–100 µg/ml, 2 days + 16 h [3H]-thymidine, cpm. In outline: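 Lymph node cells and splenocytes from immunized animals, or magnetically enriched CD4/CD8 T cells (~95% pure) plus peptide-loaded irradiated syngeneic naive splenocytes (1:1), stimulated at ~5 × 10^6 cells/ml with immunizing peptide (0–100 µg/ml) for 2 days. Pulsed with [3H]-thymidine for 16 h; proliferation read as cpm.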

Experiment [3] concerns lymph node cell (LNC) cultures. Put plainly: Cytokine secretion (bead array). To be noted: LNC supernatants, 50–100 µg/ml, day 3; P = 0.06. It counts as cell-based, A/J mice. The protocol: Supernatants were obtained from lymph node cell (LNC) cultures prepared from immunized animals that were stimulated with or without acetylated or non-acetylated, β1AR 171–190, β1AR 181–200, and β1AR 211–230 and RNase 43–56/HEL 46–61 (controls) (50–100 µg/ml) on day 3 poststimulations. Cytokine analysis was performed using beads conjugated with capture and detection Abs with the standard curves being derived from serial dilutions of mouse cytokine standard mixtures, consisting of IL-2, interferon (IFN)-γ, IL-4, IL-6, IL-10, IL-17A, and tumor necrosis factor (TNF)-α as recommended by the manufacturer’s guidelines (BD Biosciences). Briefly, capture bead/cytokine antibody conjugates were first prepared, and the mixtures were added to a tube containing diluted standards or test samples, followed by addition of detection antibodies. After acquiring by flow cytometry, FCAP Array Software was used to analyze the data (BD Biosciences) ([26], [30]).

For a further experiment, the system named is antigen-primed T cells. Briefly: Cytokine-producing cells after Th1/Th17 polarization (flow cytometry). The experiment is classed as cell-based, A/J mice. To be noted: Figure S4. The protocol:
Lymph node cells obtained from animals immunized with individual peptides, β1ARAc 171–190, β1ARAc 181–200, or β1ARAc 211–230 on day 21 postimmunizations were stimulated with the corresponding immunizing peptides (20 µg/ml) for 2 days followed by resting in IL-2 medium. In a separate set of experiments, animals were immunized with a mixture of β1ARAc 171–190, 181–200, and 211–230 peptides and their lymphocytes were stimulated with the immunizing peptides individually (50 µg/ml) for 2 days and then IL-2 medium was added. On day 3, one of the two aliquots of cells were exposed to a mixture of Th1- and Th17-polarizing conditions by adding recombinant mouse IL-12 (20 ng/ml), IL-1β (30 ng/ml), IL-6 (30 ng/ml), IL-23 (50 ng/ml) (all cytokines were procured from BioLegend, San Diego, CA, USA), and human transforming growth factor-β1 (10 ng/ml; eBioscience, San Diego, CA, USA) as reported previously ([41]–[44]), and the other was maintained in IL-2 medium alone. Flow cytometrically, we analyzed the percentages of cytokine-producing cells on days 3 and 6 following polarization as we have described previously ([28], [31], [40]). Viable cells harvested on days 8–10 were administered through i.p., or retro-orbital sinus (4–14 × 10^6 cells/animal) into naive mice primed with lipopolysaccharide (LPS, 25 µg/mouse i.p., day −4 and day 0). […]
(In flow cytometry, cells or beads pass a laser one at a time.)

For experiment [4], the system named is serum antibodies (Igs and isotypes) of immunized mice. Briefly: ELISA, antibodies that react with β1ARAc peptides. It counts as in vivo, A/J mice. To be noted: serum 1:100, day 21, OD 405 nm; five animals per group. As for the experimental part: ELISA was used to measure antibodies that react with β1ARAc peptides in the serum samples collected from immunized animals at termination on day 21 as described previously ([26]). […] After washing/blocking, serum samples (1:100) were added in duplicates, and the plates were incubated at 37°C for 1 h followed by addition of HRP-labeled goat anti-mouse immunoglobulins (Igs), IgG1, IgG2a, IgG2b, IgG3, IgM, IgA, and IgE (Southern Biotech, Birmingham, AL, USA) as secondary antibodies. Two hours after incubation at RT, 1 × tetramethylbenzidine solution was added as a substrate (eBioscience), and reactions were stopped using 1 M phosphoric acid. The plates were read at 405 nm using an automated ELISA reader (BioTek instruments, Winooski, VT, USA) to measure OD values ([26], [46]).
On the technique in general: An ELISA detects its analyte on a solid surface through an enzyme-linked reagent.

For experiment [5], the system named is CD4 T cells. Briefly: IA^k dextramer staining of CD4 T cells. The experiment is classed as cell-based, A/J mice. The note with it: IA^k dextramers.
From the text: as §1, §2

The next experiment relates to CD8 T cells. Briefly: T cell proliferation assay, enriched CD8 T cells. It counts as cell-based, A/J mice. To be noted: CD8 T cells ~95% purity from immunized mice; peptide-loaded irradiated splenocytes 1:1; Figure S3B. The protocol: (§3) At termination, lymph nodes (maxillary, mandibular, axillary, inguinal, and popliteal) and spleens were harvested from immunized animals to prepare single cell suspensions. Similarly, splenocytes were prepared from naive animals. After lysing the erythrocytes and washing, cell pellets were suspended in RPMI medium containing 10% fetal bovine serum, 1 mM sodium pyruvate, 4 mM L-glutamine, 1 × each of non-essential amino acids and vitamin mixture, and 100 U/ml penicillin–streptomycin (Lonza, Walkersville, MD, USA; hereafter called growth medium). In some experiments, CD4 T cells and CD8 T cells were enriched to a purity of ~95% by negative selection based on magnetic separation using IMAG (BD Biosciences, San Jose, CA, USA) ([31]). To stimulate CD4 and CD8 T cells, syngeneic naive irradiated splenocytes loaded with peptides were used as antigen-presenting cells at a ratio of 1:1. Cells were stimulated at a density of ~5 × 10^6 cells/ml in triplicates with or without the immunizing peptides (0–100 µg/ml) in growth medium. RNase 43–56 or HEL 46–61 were used as irrelevant controls. After 2 days, cells were pulsed with tritiated ^3[H]-thymidine (1 μCi/well; MP Biomedicals, Santa Ana, CA, USA), and 16 h later, proliferative responses were measured as counts per minute (cpm) using a Wallac liquid scintillation counter (Perkin Elmer, Waltham, MA, USA) ([26], [28], [30]).

The test system of experiment [6] is CD4 T cells. Put plainly: T cell proliferation assay, enriched CD4 T cells. The experiment is classed as cell-based, A/J mice. The note with it: CD4 T cells ~95% purity from immunized mice; peptide-loaded irradiated splenocytes 1:1; Figure S3B. As for the experimental part:
as §3

The mark [7] stands for this setting: 10 μg/ml, animals immunized with pool IV.
Setting [8] is: 100 μg/ml, animals immunized with pool IV.

As to FAGLKKANERADLIAYLKQATK [MCC 82–103], the “percent dext^+ CD4^high T cells” value with CD4 T cells [1] is recorded as 0.33 ± 0.03%.

Regarding “Myhc 614–643: cardiac myosin heavy chain-α 614–643 (Ac-SLKLMATLFSTYASADTGDSGKGKGGKKKG; UniProt Q02566 614-643, looked up, fragment)”, the “Myocarditis by N-terminally acetylated peptide (in words)” value with Balb/c mice is recorded as “can induce significant myocarditis”.

For “TRARARALVCTVWAISALVS [β1AR 171-190, 20-mer of mouse β1AR peptide library]”, in the experiment with A/J mice (hearts), the Myocarditis incidence worked out at 0%, the “Myocarditis incidence (animals with disease/total)” value is on record as 0/5 and the Inflammatory foci turned out to be 0. This substance also gave a T cell responses in [2] (setting [7]) of 2.68 fold. Further, the T cell responses in experiment [2] (setting [8]) is 5.13 fold. In experiment [3], the “IL-17A production (in words)” value is listed as “tended to be elevated”.

With “TVWAISALVSFLPILMHWWR [β1AR 181-200, 20-mer of mouse β1AR peptide library]”, the “Th1 cytokine-producing cells (in words)” value in the experiment with antigen-primed T cells is recorded as “significantly enhanced”. The “Disease severity (in words)” value in the experiment with A/J mice (hearts) (individual immunization, non-acetylated peptides) is reported as “mild disease”. For the same substance, in the experiment on A/J mice (hearts), the Myocarditis incidence amounted to 20%, the “Myocarditis incidence (animals with disease/total)” value was 1/5 and the Inflammatory foci is 2. Further, the T cell responses in experiment [2] (setting [7]) worked out at 1.70 fold. Besides, the T cell responses in experiment [2] (setting [8]) was found to be 2.30 fold. The “IL-17A production (in words)” value in [3] is on record as “tended to be elevated”.

Turning to “VNTFVHESLADVQA [RNase 43–56, bovine ribonuclease 43–56, irrelevant control, reference compound]”, the T cell responses in [2] (10 μg/ml, animals immunized with pool I) amounted to 1.05 fold; in experiment [2] (10 μg/ml, animals immunized with pool II), 1.06 fold; in experiment [2] (10 μg/ml, animals immunized with pool III), 1.04 fold; in experiment [2] (setting [7]), 1.06 fold; in experiment [2] (10 μg/ml, animals immunized with pool IX), 0.80 fold; in experiment [2] (10 μg/ml, animals immunized with pool V), 1.06 fold. Further, the T cell responses in experiment [2] (10 μg/ml, animals immunized with pool VI) worked out at 0.73 fold; in experiment [2] (10 μg/ml, animals immunized with pool VII), 1.16 fold; in experiment [2] (10 μg/ml, animals immunized with pool VIII) it was 0.91 fold; in [2] (100 μg/ml, animals immunized with pool I), 1.42 fold; in experiment [2] (100 μg/ml, animals immunized with pool II), 1.20 fold; in experiment [2] (100 μg/ml, animals immunized with pool III), 1.14 fold. Moreover, the T cell responses in [2] (setting [8]) is reported as 1.15 fold; in experiment [2] (100 μg/ml, animals immunized with pool IX), 0.83 fold; in [2] (100 μg/ml, animals immunized with pool V), 1.14 fold; in experiment [2] (100 μg/ml, animals immunized with pool VI), 1.10 fold; in experiment [2] (100 μg/ml, animals immunized with pool VII), 1.16 fold; in experiment [2] (100 μg/ml, animals immunized with pool VIII), 0.81 fold. The “T cell responses (in words)” value in experiment [2] is recorded as “lacking”. Besides, the “Antibody response, total Igs (in words)” value in experiment [4] is “lacking”. Besides, the “percent dext^+ CD4^high T cells” value came out at 0.52 ± 0.08% with CD4 T cells [5] (cells from β1ARAc 171–190-immunized mice, P = 0.049 vs control dextramer, Figure 4A) and 0.12 ± 0.01% in the experiment with CD4 T cells [5] (cells from β1ARAc 211–230-immunized mice, P = 0.0003 vs control dextramer, Figure 4C).

As for YNTDGSTDYGILQINSR [HEL 46–61], in experiment [2], the “T cell responses (in words)” value is on record as “lacking”. Moreover, the “CD8 T cell proliferative response (in words)” value with CD8 T cells is “lacking”. For the same substance, the “CD4 T cell proliferative response (in words)” value in the experiment with CD4 T cells [6] was “lacking”.
